Key:
[1] = humans; cited from earlier work
antibody to FK778 = assay: Interference of prescription drugs in the […] FK778 competitive chemiluminescent immunoassay; assay type: binding
Procedure: FK778 assays were performed by an […]® instrument, commercially available from Abbott Laboratories, Abbott Park, Ill., according to the following procedure. See also U.S. Pat. Nos. 5,795,784 and 5,856,194, both of which are incorporated herein by reference. A serum sample (10 μL) was diluted with Line Diluent at a ratio of 1 part sample to 20 parts Line Diluent. A portion of the diluted sample (10 μL) was mixed with 90 μL of Conjugate Reagent and 50 μL of Line Diluent. Magnetic Microparticle Reagent (50 μL) and Bihapten Tracer Reagent (50 μL) were added to the foregoing mixture after a period of six (6) seconds. The resulting mixture (250 μL) was incubated for 25 minutes. The microparticles were washed three (3) times with 1 mL of Line Diluent. The magnetic particles were attracted to a magnet at the same time that they were being washed. The washed microparticles were treated with Pretrigger Reagent (100 μL acidic hydrogen peroxide). Finally, the chemiluminescent reaction was triggered by addition of Trigger Reagent (alkaline detergent solution (300 μL)). Measurement of light generated was carried out by means of a photomultiplier tube.
This example illustrates interference with prescription drugs. Interference was tested for 44 of 45 prescription drugs at levels recommended in NCCLS document EP-7P. Interference was tested in the presence of FK778 and absence of FK778 in the sample. Interference was defined as greater than 5 μg/mL (without FK778) or greater than 10% (with FK778). […] Both interferences were expected; fluorescein because of its competition with the FK778-fluorescein bihapten tracer and A77,1726 because of its similarity in structure to FK778.
Fluorescein is used in in vivo diagnostic procedures to measure blood flow in the eye and is not expected to be present in patients undergoing a transplant. 10 Nevertheless, fluorescein was tested more thoroughly to estimate the magnitude of the interference at concentrations lower than 400 μg/mL.
Additional testing was also carried out with A77, 1726 to assess the cross-reactivity of this molecule in the presence and absence of FK778.

C/C(O)=C(\C#N)C(=O)Nc1ccc(C(F)(F)F)cc1 [A77 1726]
plasma half-life [1]: 15 to 18 days | % Cross-reactivity A77,1726 (antibody to FK778; A77,1726 50 μg/mL, High FK778): 13% | A77,1726 measured as FK778 (antibody to FK778; A77,1726 50 μg/mL, High FK778): 152.9 µg/mL | % Cross-reactivity A77,1726 (antibody to FK778; A77,1726 50 μg/mL, Low FK778): 43% | A77,1726 measured as FK778 (antibody to FK778; A77,1726 50 μg/mL, Low FK778): 42.3 µg/mL | % Cross-reactivity A77,1726 (antibody to FK778; A77,1726 50 μg/mL, Med FK778): 24% | A77,1726 measured as FK778 (antibody to FK778; A77,1726 50 μg/mL, Med FK778): 85 µg/mL | % Cross-reactivity A77,1726 (antibody to FK778; A77,1726 100 μg/mL, High FK778): 23% | A77,1726 measured as FK778 (antibody to FK778; A77,1726 100 μg/mL, High FK778): 170.1 µg/mL | % Cross-reactivity A77,1726 (antibody to FK778; A77,1726 100 μg/mL, Low FK778): 42% | A77,1726 measured as FK778 (antibody to FK778; A77,1726 100 μg/mL, Low FK778): 62.6 µg/mL | % Cross-reactivity A77,1726 (antibody to FK778; A77,1726 100 μg/mL, Med FK778): 31% | A77,1726 measured as FK778 (antibody to FK778; A77,1726 100 μg/mL, Med FK778): 103.4 µg/mL | % Cross-reactivity A77,1726 (antibody to FK778; A77,1726 200 μg/mL, High FK778): 34% | A77,1726 measured as FK778 (antibody to FK778; A77,1726 200 μg/mL, High FK778): 209.3 µg/mL | % Cross-reactivity A77,1726 (antibody to FK778; A77,1726 200 μg/mL, Low FK778): 42% | A77,1726 measured as FK778 (antibody to FK778; A77,1726 200 μg/mL, Low FK778): 104.8 µg/mL | % Cross-reactivity A77,1726 (antibody to FK778; A77,1726 200 μg/mL, Med FK778): 37% | A77,1726 measured as FK778 (antibody to FK778; A77,1726 200 μg/mL, Med FK778): 145.5 µg/mL | % Cross-reactivity A77,1726 (antibody to FK778; A77,1726 200 μg/mL, Zero FK778): 47% | A77,1726 measured as FK778 (antibody to FK778; A77,1726 200 μg/mL, Zero FK778): 94.9 µg/mL | Interference (antibody to FK778; defined as greater than 5 μg/mL (without FK778) or greater than 10% (with FK778)): Interference was observed

C#CCC/C(O)=C(\C#N)C(=O)Nc1ccc(C(F)(F)F)cc1 [FK778]
plasma half-life compared with A77 1726 [1]: shorter
